US20180362488A1, “STEREOISOMER OF FLOCOUMAFEN, COMPOSITION AND RODENTICIDE BAIT COMPRISING SAME, AND METHOD FOR CONTROLLING TARGET RODENT PESTS” (priority 2015, published 2018)

Type: in vivo, Sprague-Dawley rats
Details: compared with enantiomer E4 and flocoumafen
Experimental: The configurational stereoisomers of flocoumafen are separated by high-pressure liquid chromatography using a LUX® Cellulose-4 chiral column (00F-4490-B0, Phenomenex, Le Pecq, France) as stationary phase and a mixture formed from acetonitrile (A) and water comprising 0.1% by volume of formic acid (B), with an AB volume ratio of 92/8, as mobile phase with a flow rate of the liquid mobile phase in the chromatography column of 0.25 mL/minute. 1 μL of extract to be analysed at a concentration of 1 μg/mL of acetonitrile is injected. Detection is performed by tandem mass spectrometry (MS/MS) in negative electrospray ionization (ESI) mode. The temperature of the nebulizer gas is 350° C. and its flow rate is 8 L/minute. The pressure of the nebulizer gas is brought to 2700 hPa. In particular, the MRM (“Multiple Reaction Monitoring”) transitions m/z 541.1→382.1 and m/z 541.1→161, corresponding to the flocoumafen signal, are analysed.
About 0.525 g (±0.025 g) of rat liver is weighed out accurately and placed in a 50 mL polypropylene tube. 10 mL of acetone are added and the suspension is homogenized using an Ultra-Turrax® homogenizer/disperser for a time of about 30 seconds. The homogenizer/disperser shaft is rinsed with hot water and then twice with 20 mL of acetone in a polypropylene tube. The homogenate is centrifuged for 5 minutes at a centrifugation speed of 3000 rpm (revolutions per minute). […]

O=c1oc2ccccc2c(O)c1C1CC(c2ccc(OCc3ccc(C(F)(F)F)cc3)cc2)Cc2ccccc21 (single isomer, unassigned) [Enantiomer E2]
Persistence in the liver of the male and female rats: lower than the persistence of enantiomer E4 of said diastereoisomer D1,4 and lower than the persistence of flocoumafen
